# Legend:
# [1] = Penetration study through human skin, Franz diffusion apparatus; assay type: in vitro ADME; conditions: for reduction of penetration on addition, in words (compared with octanoic acid): Example 8
# Source text: EtOH is ethanol. The term mcg=microgram.
# rats = conditions: cited from earlier work
# [2] = clindamycin phosphate, erythromycin base, fusidate sodium, fluorouracil, desonide, amcinonide and triamcinolone acetonide; cited from earlier work
smiles,measurement,setting,value
CCCCCCCC(=O)O [octanoic acid],reduction of penetration on addition to triamcinolone / propylene glycol / C14 OH composition,"[1]; Example 8, 0-72 hrs, 4% octanoic acid",50%
CCCCCCCCCCCCCCCCO [cetyl alcohol],"reduction of penetration on addition, in words (compared with octanoic acid)",[1],Substantially similar results
CCCCCCCCCC(=O)O [decanoic acid],"reduction of penetration on addition, in words (compared with octanoic acid)",[1],Substantially similar results
"CCCCCCCCCCCCN1CCCCCC1=O [Azone, 1-dodecyl-azacycloheptan-2-one]",order of toxicity,"rats; rat, in vivo",low order of toxicity
same,lethal dose for 50% survival (LD50),rats; rats,about 8 g/kg
same,enhancement of cutaneous penetration,[2],enhance the cutaneous penetration
CCCCCCCCCCCCCCCCCCO [steryl alcohol],"reduction of penetration on addition, in words (compared with octanoic acid)",[1],Substantially similar results

# Reference: patent US4557934A, “Penetrating topical pharmaceutical compositions containing 1-dodecyl-azacycloheptan-2-one” (priority 1983, dated 1985)
